The NIST ThermoML archive (doi:10.1016/j.jct.2006.09.015)
± gives the expanded uncertainty stated by the source.

How the values were obtained:
[1] = relative permittivity at various frequencies (dimensionless); conditions: 101.3 kPa, Liquid, Frequency=3 MHz, Bridge type OH-301 made in Radelcis, Hungary
[2] = relative permittivity at various frequencies (dimensionless); xn = mol fraction of the nth substance listed; conditions: 101.3 kPa, Liquid, Frequency=3 MHz, Bridge type OH-301 made in Radelcis, Hungary

COCCO [2-methoxyethan-1-ol]
[1]
Conditions | relative permittivity
293.15 K | 17.38 ± 0.04
298.15 K | 16.95 ± 0.04
303.15 K | 16.56 ± 0.04

COCCO [2-methoxyethan-1-ol] + OCCOCCO
[2], x1 = 1
Conditions | relative permittivity
293.15 K | 17.38 ± 0.04
298.15 K | 16.95 ± 0.04
303.15 K | 16.56 ± 0.04

COCCO [2-methoxyethan-1-ol] + OCCOCCOCCO
[2], x1 = 1
Conditions | relative permittivity
293.15 K | 17.38 ± 0.04
298.15 K | 16.95 ± 0.04
303.15 K | 16.56 ± 0.04

COCCO [2-methoxyethan-1-ol] + OCCOCCOCCOCCO
[2], x1 = 1
Conditions | relative permittivity
293.15 K | 17.38 ± 0.04
298.15 K | 16.95 ± 0.04
303.15 K | 16.56 ± 0.04

OCCOCCO [diethylene glycol]
[1]
Conditions | relative permittivity
293.15 K | 31.81 ± 0.04
298.15 K | 30.95 ± 0.04
303.15 K | 30.03 ± 0.04

OCCOCCO [diethylene glycol] + COCCO
relative permittivity, [2]
Conditions | 293.15 K | 298.15 K | 303.15 K
x2 = 0 | 31.81 ± 0.04 | 30.95 ± 0.04 | 30.03 ± 0.04
x2 = 0.0414 | 31.69 ± 0.04 | 30.71 ± 0.04 | 29.85 ± 0.04
x2 = 0.0999 | 31.49 ± 0.04 | 30.39 ± 0.04 | 29.49 ± 0.04
x2 = 0.2077 | 31.23 ± 0.04 | 29.85 ± 0.04 | 29.01 ± 0.04
x2 = 0.3001 | 31.03 ± 0.04 | 29.41 ± 0.04 | 28.45 ± 0.04
x2 = 0.4094 | 30.32 ± 0.04 | 28.67 ± 0.04 | 27.49 ± 0.04
x2 = 0.4998 | 29.56 ± 0.04 | 27.81 ± 0.04 | 26.61 ± 0.04
x2 = 0.5994 | 28.32 ± 0.04 | 26.68 ± 0.04 | 25.36 ± 0.04
x2 = 0.6996 | 26.65 ± 0.04 | 24.99 ± 0.04 | 23.55 ± 0.04
x2 = 0.7996 | 24.25 ± 0.04 | 22.78 ± 0.04 | 21.64 ± 0.04
x2 = 0.9018 | 21.43 ± 0.04 | 20.27 ± 0.04 | 19.39 ± 0.04
x2 = 0.9463 | 19.98 ± 0.04 | 18.88 ± 0.04 | 18.25 ± 0.04

OCCOCCOCCO [triethylene glycol]
[1]
Conditions | relative permittivity
293.15 K | 23.69 ± 0.04
298.15 K | 23.07 ± 0.04
303.15 K | 22.43 ± 0.04

OCCOCCOCCO [triethylene glycol] + COCCO
relative permittivity, [2]
Conditions | 293.15 K | 298.15 K | 303.15 K
x2 = 0 | 23.69 ± 0.04 | 23.07 ± 0.04 | 22.43 ± 0.04
x2 = 0.05 | 23.69 ± 0.04 | 23.05 ± 0.04 | 22.42 ± 0.04
x2 = 0.1 | 23.7 ± 0.04 | 23.03 ± 0.04 | 22.41 ± 0.04
x2 = 0.2003 | 23.72 ± 0.04 | 23.06 ± 0.04 | 22.48 ± 0.04
x2 = 0.2999 | 23.76 ± 0.04 | 23.07 ± 0.04 | 22.48 ± 0.04
x2 = 0.4009 | 23.79 ± 0.04 | 23.06 ± 0.04 | 22.44 ± 0.04
x2 = 0.5 | 23.82 ± 0.04 | 22.95 ± 0.04 | 22.35 ± 0.04
x2 = 0.5999 | 23.77 ± 0.04 | 22.76 ± 0.04 | 21.91 ± 0.04
x2 = 0.7 | 23.62 ± 0.04 | 22.3 ± 0.04 | 21.39 ± 0.04
x2 = 0.8 | 22.92 ± 0.04 | 21.54 ± 0.04 | 20.43 ± 0.04
x2 = 0.9 | 21.26 ± 0.04 | 19.93 ± 0.04 | 19.1 ± 0.04
x2 = 0.9499 | 19.75 ± 0.04 | 18.81 ± 0.04 | 18.14 ± 0.04
